Reference: patent US9169481B2, “Cell-mediated directed evolution” (priority 2006, dated 2015)
Several values for one entry are separate records, joined by “and”; a condition that tells them apart may be missing. Equal values may be shown once.

Experiments:
[1] = test system: O=[N+]([O-])c1ccc(O[C@@H]2O[C@H](CO)[C@@H](O[C@@H]3O[C@H](CO)[C@@H](O)[C@H](O)[C@H]3O)[C@H](O)[C@H]2O)cc1; experiment: Steady-state kinetics of pNPC hydrolysis (release of p-nitrophenol), CelT = CelV; assay type: biochemical, Erwinia carotovora; conditions: other: pNPC, pH 7, room temperature
Source text: (§1) The DNA shuffling vector, pPPY2148, was constructed by digesting p425Met25 (ATCC) with HindIII and PstI and introducing an 800 bp stuffer flanked by SfiI sites. The catalytic domain of four family 5 cellulases with 77-90% sequence identity, E. carotovora CelN (Olsen et al., 1996, Biotechnology (N Y) 14:71-76), CelVI (Mae and Palva, 1995, Mol Gen Genet. 247:17-26), CelA (Park et al., 1997, Biochem Biophys Res Commun. 241:636-641) and CelT (cloned from the E. carotovora subs. atroceptica (Bell et al., 2004, Proc Natl Acad Sci USA. 101: 11105-11110) genomic DNA) were cloned into pPY2148 to create plasmids pPPY2230, pPPY2232, pPPY2234 and pPPY2236 respectively. A ^6His-tag was added at the C-terminus of the four parent genes to facilitate protein purification after selection. The catalytic domain of these cellulases was identified by sequence comparison with the catalytic domain of Bacillus agaradhaerens Cel5A, which has 68% sequence identity at the amino acid level with the parent genes and which three dimensional X-ray structure is available (Davies et al., 1998, Biochemistry 37: 1926-1932; Davies et al., 1998, Biochemistry 37: 11707-11713; Varrot et al., 2000, J Mol Biol. 297: 819-828; Varrot et al., 2001, Acta Crystallogr D Biol Crystallogr. 57: 1739-1742; Varrot and Davies, 2003, Acta Crystallogr D Biol Crystallogr. 59: 447-452). The cellulase genes were shuffled using standard procedures with slight variations (Zhao and Arnold, 1997, Nucleic Acids Res. 25: 1307-1308). To introduce the shuffled product into the shuffling vector via homologous recombination, 30 bp homology to the shuffling vector was introduced at the 5′ and 3′ end of the shuffled product by carrying an extra amplification step of the shuffling product primers VC1658-VC1659. 7.5 ng of shuffled product (1.4E11 shuffled product molecules assuming each base pair is 330M and the shuffled product was 1000 bp) was used as a template in a 100 ul amplification reaction. The product was purified in a 2% agarose gel.
(§2) Ten colonies selected on day 8 and 9 were characterized in vitro using para-nitrophenyl cellobioside (pNPC) as a substrate. The cellulase chimeras were amplified from the shuffling vector using primers PPY100 and PPY103 and subcloned into the T7-expression vectors pAED4 between NdeI and HindIII sites. The cellulase chimeras were over expressed in E. coli and purified using a Nickel affinity column. Protein concentration was determined using the extinction coefficient of the parent genes ε=76890 and absorption at A280. To determine the kinetic constants for the hydrolysis of pNPC, the cellulase chimeras were incubated at room temperature in phosphate buffer (25 mM K2HPO4, 100 mM NaCl, pH=7) containing various concentrations of the substrate, and the release of p-nitrophenol (εpH=7=4000M^−1 cm^−1, A420) was recorded continuously in a SpectraMax Plus 384 spectrophotometer.
(§3) The three starting cellulases and the improved cellulase variants were subcloned into the E. coli T7 vector, pAED4, between NdeI and HindIII sites to give vectors pPPY2256 (CelN), pPPY2258 (CelA), pPPY2257 (CelV), pPPY2291 (Cel—3.7), and pPPY2292 (Cel—5.7). The cellulases were purified using Quick spin Ni-NTA affinity column (Qiagen). Protein concentration was determined using the extinction coefficient of the starting genes (ε=76670) and absorption at 280 nm. […] The release of p-nitrophenol (εpH 7=4000M−1 cm−1, A420) was recorded continuously in a SpectraMax Plus 384 spectrophotometer at 420 nm.

[2] = test system: Erwinia carotovora CelN/CelA/CelV shuffled variant Cellulase 2 (Cel_5.7), vs CelN: A86V, S126N, E154D, T172S, C208R, T262S, A267T, A272T; SEQ ID NO:6; experiment: Steady-state kinetics of pNPC hydrolysis, Cellulase 2; assay type: biochemical
Protocol: as §2
(§4) The three starting cellulases and the improved cellulase variants were subcloned into the E. coli T7 vector, pAED4, between NdeI and HindIII sites to give vectors pPPY2256 (CelN), pPPY2258 (CelA), pPPY2257 (CelV), pPPY2291 (Cel—3.7), and pPPY2292 (Cel—5.7). The cellulases were purified using Quick spin Ni-NTA affinity column (Qiagen). Protein concentration was determined using the extinction coefficient of the starting genes (ε=76670) and absorption at 280 nm. To determine the kinetic constants for the hydrolysis of pNPC, the cellulase chimeras were incubated at room temperature in phosphate buffer (25 mM K2HPO4, 100 mM NaCl, pH 7) containing seven different concentrations of pNPC ranging from 12 mM to 0.185 mM. The release of p-nitrophenol (εpH 7=4000M−1 cm−1, A420) was recorded continuously in a SpectraMax Plus 384 spectrophotometer at 420 nm.
A homology model of Cel—5.7 (cellulase 2) was made, again utilizing the same structure of B. agaradherans Cel5A, using Swiss-Model (FIG. 28b)^38. Four mutations are in the C-terminus loops that compose the extended carbohydrate binding site, while the other 4 map onto the surface of the enzyme. Although mutation T172S is located in C-terminus loop 5, it is 15 Å away from closest hexose ring in the substrate inhibitor. Mutations T262S, A267T, A272T are located in C-terminus loop 8. The mutation T262S is the closest to the substrate inhibitor, 6 Å away from the 6′-OH of the hexose ring in the −3 subsite. […] This mutation is located at the N-terminus of the barrel and points towards the solvent.

[3] = test system: Erwinia carotovora cellulase CelA (Cellulase A), catalytic domain, parent; experiment: Steady-state kinetics of pNPC hydrolysis (release of p-nitrophenol), CelA; assay type: biochemical; conditions: pH 7, room temperature
Source text: as §1, with “To introduce the shuffled product into the shuffling vector via homologous recombination, 30 bp homology to the shuffling vector was introduced at the 5′ and 3′ end of the shuffled product by carrying an extra amplification step of the shuffling product primers VC1658-VC1659. 7.5 ng of shuffled product (1.4E11 shuffled product molecules assuming each base pair is 330M and the shuffled product was 1000 bp) was used as a template in a 100 ul amplification reaction. The product was purified in a 2% agarose gel.” left out
as §2, with “The cellulase chimeras were amplified from the shuffling vector using primers PPY100 and PPY103 and subcloned into the T7-expression vectors pAED4 between NdeI and HindIII sites. The cellulase chimeras were over expressed in E. coli and purified using a Nickel affinity column.” left out
as §3, with “The cellulases were purified using Quick spin Ni-NTA affinity column (Qiagen).” left out

[4] = biological target: Erwinia carotovora cellulase CelN (Cellulase N), catalytic domain, parent (Pectobacterium atrosepticum, UniProt Q59394); experiment: Steady-state kinetics of pNPC hydrolysis (release of p-nitrophenol), CelN; assay type: biochemical; conditions: pH 7, room temperature
Source text: as §1, §2, §3

[5] = test system: Erwinia carotovora shuffled cellulase variant Cellulase 6, SEQ ID NO:12; experiment: Steady-state kinetics of pNPC hydrolysis, Cellulase 6; assay type: biochemical; conditions: pH 7, room temperature
Protocol: as §2, §4

[6] = test system: Erwinia carotovora shuffled cellulase variant Cellulase 5, SEQ ID NO:10; experiment: Steady-state kinetics of pNPC hydrolysis, Cellulase 5; assay type: biochemical; conditions: pH 7, room temperature
Protocol: as §2, §4

[7] = biological target: Erwinia carotovora cellulase CelV (Cellulase V; = CelT, Cellulase T), catalytic domain, parent (Pectobacterium atrosepticum, UniProt Q6D5R0); experiment: Steady-state kinetics of pNPC hydrolysis (release of p-nitrophenol), CelT = CelV; assay type: biochemical; conditions: pH 7, room temperature
Source text: as §1, §2, §3

[8] = test system: Erwinia carotovora CelN/CelA/CelV shuffled variant Cellulase 1 (CELLVAR2, Colony 2, Cel_3.7), vs CelN: S126N, D157E, Q186L, L193M, V2541, T288A, E295A, G30A …; experiment: Steady-state kinetics of pNPC hydrolysis, Cellulase 1; assay type: biochemical
Protocol: as §2, §4
Cel—3.7 (cellulase 1) contains nine crossovers. […] A homology model of Cel—3.7 (cellulase 1) was made, utilizing the B. agaradherans Cel5A structure (SwissProt: O85465; PDB: 1h5v) with the inhibitor methyl 4,4II,4III,4IV-tetrathio-α-cellopentoside bound to the active site, using Swiss-Model (FIG. 28A). The eight mutations accessible with the homology model map onto the surface of the enzyme, away from the extended carbohydrate binding site.

[9] = test system: Erwinia carotovora shuffled cellulase variant Cellulase 8, SEQ ID NO:16; experiment: Steady-state kinetics of pNPC hydrolysis, Cellulase 8; assay type: biochemical; conditions: pH 7, room temperature
Protocol: as §2, §4

[10] = test system: Erwinia carotovora shuffled cellulase variant Cellulase 3, SEQ ID NO:8; experiment: Steady-state kinetics of pNPC hydrolysis, Cellulase 3; assay type: biochemical; conditions: pH 7, room temperature
Protocol: as §2, §4

[11] = test system: Erwinia carotovora shuffled cellulase variant Cellulase 4 (CELLVAR1, Colony 1), SEQ ID NO:3; experiment: Steady-state kinetics of pNPC hydrolysis, Cellulase 4; assay type: biochemical; conditions: pH 7, room temperature
Protocol: as §2, §4

[12] = test system: Erwinia carotovora shuffled cellulase variant Cellulase 7, SEQ ID NO:14; experiment: Steady-state kinetics of pNPC hydrolysis, Cellulase 7; assay type: biochemical; conditions: pH 7, room temperature
Protocol: as §2, §4

[13] = biological target: lipocalin (de novo selected); conditions: Beste et al., 1999; read-out: dissociation constant; cited from earlier work
[14] = test system: reverse yeast three-hybrid strain; experiment: 5-FOA effect on growth of reverse yeast three-hybrid strain; assay type: cell-based, Saccharomyces cerevisiae; conditions: 5-FOA concentrations beyond 0.3%
Source text: First, we recombined the URA3 gene at the ura3-52 locus of our chemical complementation yeast strain, FY251, and selected for Ura^+ phenotype on medium lacking uracil to create VC2169. Next, the vectors carrying the DBD-DHFR and GR-B42 constructs were introduced into VC2169 and selected on plates lacking uracil, histidine, and tryptophan to create VC2291. Finally, we introduced the LexA(4op) and the Spo13 promoter upstream of the URA3 gene and selected for Ura^− phenotype on medium containing 5-FOA. This selection provided numerous reverse three-hybrid colonies. Three colonies were used to optimize the reverse yeast three-hybrid system for the highest fold increase in activation in the presence of 10 μM Mtx-Dex by measuring the difference between cell survival and cell death. Mtx-Dex was used, instead of Mtx-Cel-Dex, for the optimization of the system as the cellulose linker is not necessary for the system's functioning, and the synthesis of Mtx-Dex is simpler than that of Mtx-Cel-Dex. The system was optimized by varying the level of galactose, which affects the concentration of DBD-DHFR and AD-GR in the system, and 5-FOA, which controls the toxicity level of the reporter gene. Galactose levels ranging from 1 to 2% and 5-FOA concentrations ranging from 0.1 to 0.5% were tested simultaneously. […]

[15] = test system: D-2-deoxyribose-5-phosphate aldolase (DERA) variant; conditions: directed evolution with in vitro screen; DeSantis et al., 2003; cited from earlier work
[16] = test system: O=[N+]([O-])c1ccc(O[C@@H]2O[C@H](CO)[C@@H](O[C@@H]3O[C@H](CO)[C@@H](O)[C@H](O)[C@H]3O)[C@H](O)[C@H]2O)cc1; experiment: Steady-state kinetics of pNPC hydrolysis (release of p-nitrophenol), CelN; assay type: biochemical, Erwinia carotovora; conditions: other: pNPC, pH 7, room temperature
Source text: as §1, §2, §3

Erwinia carotovora cellulase CelV (Cellulase V; = CelT, Cellulase T), catalytic domain, parent (Pectobacterium atrosepticum SCRI1043)
Km [1]: 4600 µM
kcat [1]: 1100 s⁻¹
kcat/Km [1]: 237000 M⁻¹ s⁻¹

O=[N+]([O-])c1ccc(O[C@@H]2O[C@H](CO)[C@@H](O[C@@H]3O[C@H](CO)[C@@H](O)[C@H](O)[C@H]3O)[C@H](O)[C@H]2O)cc1 [pNPC, p-nitrophenyl cellobioside]
Kcat ([2]; pH 7, room temperature): 5200 s⁻¹
Kcat/Km ([2]; pH 7, room temperature): 2.1 × 10^6 sec^−1M^−1 and 2.1 × 10^6 M^−1sec^−1
Km ([2]; pH 7, room temperature): 2500 µM and 2470 µM
increase in catalytic efficiency over the best starting cellulase, CelN ([2]; relative to CelN): 5.3 fold and 5.7 fold
Kcat [3]: 1400 s⁻¹
Kcat/KM [3]: 193000 M⁻¹ s⁻¹
Kcat/Km [3]: 192000 M⁻¹ s⁻¹
Km [3]: 7200 µM
Kcat [4]: 1300 s⁻¹
Kcat/Km [4]: 370000 M⁻¹ s⁻¹
Kcat [5]: 210 s⁻¹
Kcat/Km [5]: 220000 M⁻¹ s⁻¹
Km [5]: 960 µM and 1000 µM
Kcat [6]: 6700 s⁻¹
Kcat/Km [6]: 4.5e+06 M⁻¹ s⁻¹
Km [6]: 1500 µM
Kcat [7]: 1100 s⁻¹
Kcat/Km [7]: 240000 M⁻¹ s⁻¹
Kcat ([8]; pH 7, room temperature): 4300 s⁻¹
Kcat/KM ([8]; pH 7, room temperature): 1.3e+06 M⁻¹ s⁻¹
Kcat/Km ([8]; pH 7, room temperature): 1.4 × 10^6 sec^−1M^−1 and 1.4 × 10^6 M^−1sec^−1
Km ([8]; pH 7, room temperature): 3200 µM
increase in catalytic efficiency over the best starting cellulase, CelN ([8]; relative to CelN): 3.6 fold and 3.7 fold
Kcat [9]: 840 s⁻¹
Kcat/Km [9]: 200000 M⁻¹ s⁻¹
Km [9]: 4300 µM
Kcat [10]: 5000 s⁻¹
Kcat/Km [10]: 1.4 × 10^6 sec^−1M^−1 and 1.4 × 10^6 M^−1sec^−1
Km [10]: 3600 µM
Kcat [11]: 16000 s⁻¹
Kcat/KM [11]: 1.2e+07 M⁻¹ s⁻¹
Kcat/Km [11]: 1.1e+07 M⁻¹ s⁻¹
Km [11]: 1300 µM
Kcat [12]: 110 s⁻¹
Kcat/Km [12]: 8120 M⁻¹ s⁻¹ and 8100 M⁻¹ s⁻¹
Km [12]: 14000 µM

O=C1OC2(c3ccc(O)cc3Oc3cc(O)ccc32)c2ccccc21 [fluorescein]
Kd [13]: 65 nM

O=C(O)c1[nH]c(=O)[nH]c(=O)c1F [5-FOA, 5-fluoroorotic acid]
effect on cell growth [14]: detrimental for cell growth

O=C[C@H](O)CO [D-glyceraldehyde]
improvement in catalytic efficiency [15]: 2.5 fold

Erwinia carotovora cellulase CelN (Cellulase N), catalytic domain, parent (Pectobacterium atrosepticum)
Km [16]: 3400 µM
kcat [16]: 1300 s⁻¹
kcat/Km [16]: 374000 M⁻¹ s⁻¹
